Data published in PMC7083880 (Nature Communications, 2020).

What was measured:
[1] = tested on: wild-type TP53 in HeLa cells; assay: p53 function: luciferase under promoter with two p53-responsive elements, HeLa; type: cell-based, human
[2] = tested on: p53 readthrough protein in Calu-6 cells; assay: p53 function: luciferase under promoter with two p53-responsive elements, Calu-6; type: cell-based, human
Excerpt: The three leftmost lanes show twofold serial dilutions of untreated HeLa cell extract. The molecular weight is indicated to the left of each gel. b Schematic representation of the construct used to measure the function of p53. The construct carries a cDNA encoding the firefly luciferase under a promoter having two p53-responsive elements (underlined). […] The level of p21 mRNA is related to the amount of functional p53 protein synthesized in the cell. The results presented in panels b and c are representative of at least two independent experiments., p-values (p) were calculated using Student’s t-test. Source data are provided as a Source Data file.
Although DAP clearly promoted the synthesis of full-length proteins from UGA-nonsense-mutation-containing mRNAs, it was necessary to ascertain that the readthrough protein was functional. […] The first involved measuring the transcriptional activity of the p53 readthrough protein in Calu-6 cells transfected with an expression vector carrying the cDNA encoding firefly luciferase under the control of a promoter with two p53-responsive elements (Fig. 2b)[33]. Upon DMSO treatment, only basal luciferase activity was detected, reflecting promoter leakage (Fig. 2c). […] The second assay used the p53 target gene p21 (ref. [44]).

[3] = target: T1, CTU1 (Homo sapiens, UniProt Q7Z7A3); assay: UGA readthrough luciferase assay with CTU1 overexpression; type: cell-based;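 for luciferase activity, average: DAP exposure for 24 h before luciferase measurement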;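 for luciferase activity, exp2: DAP exposure for 24 h before luciferase measurement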
T1 construct: host or cells: HeLa
T1 sequence (Q7Z7A3 1-348): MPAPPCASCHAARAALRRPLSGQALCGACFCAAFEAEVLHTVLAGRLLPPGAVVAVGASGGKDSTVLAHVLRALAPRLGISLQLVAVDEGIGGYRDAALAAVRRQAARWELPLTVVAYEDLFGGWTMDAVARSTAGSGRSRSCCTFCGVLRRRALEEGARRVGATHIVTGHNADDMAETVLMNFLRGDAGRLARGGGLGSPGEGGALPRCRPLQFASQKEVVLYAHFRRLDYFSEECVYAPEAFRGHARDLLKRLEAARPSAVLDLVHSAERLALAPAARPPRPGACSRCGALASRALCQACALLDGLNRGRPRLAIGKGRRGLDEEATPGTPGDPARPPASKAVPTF
Excerpt: Firefly luciferase from HEK293FT cells transfected with the Fluc-int-UGA construct was immunoprecipitated and digested with trypsin. The MS/MS spectrum of the peptide containing the PTC position and the sequence determination are shown. The upper red and blue sequences indicate the amino acids validated, respectively, by detection of Nter and Cter peptide fragments (b and y ion series). Peptide fragments y6 and y7 clearly identify tryptophan (W) at the PTC position. The black peaks correspond to non-attributed mass-to-charge ratio (m/z) values. […] Readthrough efficiency was determined by measuring luciferase activity in HeLa cells co-transfected with the firefly luciferase construct described in Fig. 1b and with increasing amounts of an expression vector for either FTSJ1 or CTU1 (0.5, 1, or 2 µg). The empty expression vector (E.v.) was used as control. […] The experiment was performed twice and the results of both experiments (Exp1 and Exp2) are shown. c Western blot analysis of FTSJ1 and CTU1. d 2′-O-methylation analysis of tRNA^Trp, tRNA^SER, and tRNA^GLN by RiboMethSeq. […] A molecular weight marker is indicated to the left of each gel. p-values (p) were calculated using Student’s t-test. Source data are provided as a Source Data file.
Among the enzymes modifying tRNAs liable to recognize a stop codon by extended wobbling, human FTSJ1 (TRM7 in yeast) exclusively modifies tRNAs involved in UGA readthrough. In addition to other tRNA targets, FTSJ1 methylates the cytosine at position 34 of tRNA^Trp. Inhibition of this modification could increase the capacity of tRNA^Trp to misdecode and recognize the UGA stop codon. […] FTSJ1 and CTU1 overexpression were assessed by western-blot analysis (Fig. 5c).

SMILES: CN[C@@H]1[C@@H](O)[C@@H](O[C@@H]2[C@@H](O)[C@H](O[C@H]3O[C@H]([C@@H](C)O)[C@@H](O)[C@H](O)[C@H]3N)[C@@H](N)C[C@H]2N)OC[C@]1(C)O [G418, reference compound]
- Luciferase activity, p53-responsive promoter construct (DMSO = 1) ([1]; 25µM, FL922): 0.9453
- Luciferase activity, p53-responsive promoter construct (DMSO = 1) ([1]; 25µM, FL932): 0.904
- Luciferase activity, p53-responsive promoter construct (DMSO = 1) ([1]; 25µM, FL934): 1.071
- Luciferase activity, p53-responsive promoter construct (DMSO = 1) ([1]; 25µM, average): 0.9735
- Luciferase activity, p53-responsive promoter construct (DMSO = 1) ([1]; 600µM, FL922): 0.9542
- Luciferase activity, p53-responsive promoter construct (DMSO = 1) ([1]; 600µM, FL932): 0.6225
- Luciferase activity, p53-responsive promoter construct (DMSO = 1) ([1]; 600µM, FL934): 1.017
- Luciferase activity, p53-responsive promoter construct (DMSO = 1) ([1]; 600µM, average): 0.8645
- Luciferase activity under p53-responsive promoter, in words [2]: remained at its background level
- Luciferase activity, p53-responsive promoter construct (DMSO = 1) ([2]; 25µM, average): 1.04
- Luciferase activity, p53-responsive promoter construct (DMSO = 1) ([2]; 25µM, experiment 1): 1.048
- Luciferase activity, p53-responsive promoter construct (DMSO = 1) ([2]; 25µM, experiment 2): 0.7766
- Luciferase activity, p53-responsive promoter construct (DMSO = 1) ([2]; 25µM, experiment 3): 1.295
- Luciferase activity, p53-responsive promoter construct (DMSO = 1) ([2]; 600µM, average): 1.017
- Luciferase activity, p53-responsive promoter construct (DMSO = 1) ([2]; 600µM, experiment 1): 1.299
- Luciferase activity, p53-responsive promoter construct (DMSO = 1) ([2]; 600µM, experiment 2): 0.6289
- Luciferase activity, p53-responsive promoter construct (DMSO = 1) ([2]; 600µM, experiment 3): 1.121
- luciferase activity, average ([3]; 0.5µg CTU1, 25µM): 3303.88
- luciferase activity, exp1 ([3]; 0.5µg CTU1, 25µM): 2866.5
- luciferase activity, exp1*1,5 ([3]; 0.5µg CTU1, 25µM): 4299.75
- luciferase activity, exp2 ([3]; 0.5µg CTU1, 25µM): 2308
- luciferase activity, average ([3]; 0.5µg CTU1, 600µM): 6542.12
- luciferase activity, exp1 ([3]; 0.5µg CTU1, 600µM): 5872.5
- luciferase activity, exp1*1,5 ([3]; 0.5µg CTU1, 600µM): 8808.75
- luciferase activity, exp2 ([3]; 0.5µg CTU1, 600µM): 4275.5
- luciferase activity, average ([3]; 1µg CTU1, 25µM): 3585
- luciferase activity, exp1 ([3]; 1µg CTU1, 25µM): 3346
- luciferase activity, exp1*1,5 ([3]; 1µg CTU1, 25µM): 5019
- luciferase activity, exp2 ([3]; 1µg CTU1, 25µM): 2151
- luciferase activity, average ([3]; 1µg CTU1, 600µM): 5848.5
- luciferase activity, exp1 ([3]; 1µg CTU1, 600µM): 6204
- luciferase activity, exp1*1,5 ([3]; 1µg CTU1, 600µM): 9306
- luciferase activity, exp2 ([3]; 1µg CTU1, 600µM): 2391
- luciferase activity, average ([3]; 2µg CTU1, 25µM): 2193.38
- luciferase activity, exp1 ([3]; 2µg CTU1, 25µM): 1845.5
- luciferase activity, exp1*1,5 ([3]; 2µg CTU1, 25µM): 2768.25
- luciferase activity, exp2 ([3]; 2µg CTU1, 25µM): 1618.5
- luciferase activity, average ([3]; 2µg CTU1, 600µM): 2999.5
- luciferase activity, exp1 ([3]; 2µg CTU1, 600µM): 2670
- luciferase activity, exp1*1,5 ([3]; 2µg CTU1, 600µM): 4005
- luciferase activity, exp2 ([3]; 2µg CTU1, 600µM): 1994
